Consider twelve compounds from US12233161B1, “Lipids and lipid nanoparticle formulations” (LONGUIDE BIOPHARMA CORPORATION, priority 2024, dated 2025).

For this experiment, the system named is mice. The experiment is described as follows: In vivo delivery of FLuc-mRNA lipid nanoparticles in mice, in vivo imaging (IVIS). To be noted: for % of organ targeting / IVIS: Fluc-mRNA LNP, formulation, molar ratio and N/P as in the table; for organ targeting specificity (spleen or lung), in words: Table 3, Fluc-mRNA, various formulations. How it is done: After the preparation was completed, the preparation was injected intramuscularly (mice rectus femoris muscle of the thigh), intravenously (mice tail vein), or intraperitoneal injection or subcutaneous injection (subcutaneous on the back), with approximately 75 μL per mouse, for a total of 3 mice. After a certain time of injection, in vivo imaging (PerkinElmer, IVIS Lumina III) was performed. 10-15 minutes before imaging, 200 μL of 15 mg/mL D-Luciferin working solution was injected intraperitoneally, and the imaging analysis was performed using an in vivo imager.

For the compound `CCCCCCCC(CCCCCCC)OC(=O)CCCNC(=O)C(O)CN(CCN(C)CCN(CC(O)C(=O)NCCCC(=O)OC(CCCCCCC)CCCCCCC)CC(O)C(=O)NCCCC(=O)OC(CCCCCCC)CCCCCCC)CC(O)C(=O)NCCCC(=O)OC(CCCCCCC)CCCCCCC` (stereo not drawn) [Compound L0383], the “organ targeting specificity (spleen or lung), in words” value (“organ targeting specificity” below) is listed as “strong targeting specificity to deliver to spleen”. Moreover, under “route IM, organ: liver”, the “% of organ targeting” value was found to be 29.05% and the IVIS was determined as 1.91E+05. Further, under “route IM, organ: lung”, the “% of organ targeting” value worked out at 10.07% and the IVIS is on record as 6.63E+04. Under “route IM, organ: muscle”, the IVIS is reported as 1.78E+08. Also, for the setting “route IM, organ: spleen”, the “% of organ targeting” value was found to be 60.88% and the IVIS worked out at 4.01E+05. For the same compound, the IVIS (route IV, organ: body) was found to be 2.00E+09. Besides, for the setting “route IV, organ: liver”, the “% of organ targeting” value is on record as 68.14% and the IVIS came out at 4.62E+08. In addition, for the setting “route IV, organ: lung”, the “% of organ targeting” value stood at 2.23% and the IVIS was 1.52E+07. For the setting “route IV, organ: spleen”, the “% of organ targeting” value turned out to be 29.63% and the IVIS turned out to be 2.01E+08.
Take `CCCCCCCCCCCCCCN(C)C(=O)C(O)CN(CCCN(CC(O)C(=O)N(C)CCCCCCCCCCCCCC)CC(O)C(=O)N(C)CCCCCCCCCCCCCC)CCCN(CC(O)C(=O)N(C)CCCCCCCCCCCCCC)CC(O)C(=O)N(C)CCCCCCCCCCCCCC` (stereo not drawn) [Compound L0357]: the IVIS by setting is: (route IM, organ not given) 3.97E+06; (route IV, organ: body) 2.87E+07; (route IV, organ: liver) 6.55E+06; (route IV, organ: lung) 2.06E+05; (route IV, organ: spleen) 5.03E+06. Also, the “% of organ targeting” value (route IV, organ: liver) is 55.56%; the “% of organ targeting” value (route IV, organ: lung) is given as 1.75%; the “% of organ targeting” value (route IV, organ: spleen) turned out to be 42.69%.
With `CCCCCCCCCCN(C)C(=O)C(O)CN(CCCN(CC(O)C(=O)N(C)CCCCCCCCCC)CC(O)C(=O)N(C)CCCCCCCCCC)CCCN(CC(O)C(=O)N(C)CCCCCCCCCC)CC(O)C(=O)N(C)CCCCCCCCCC` (stereo not drawn) [Compound L0353], the IVIS (route IM, organ not given) is 1.68E+07; the IVIS (route IV, organ: body) was determined as 1.21E+08; the IVIS (route IV, organ: liver) is given as 3.54E+07; the IVIS (route IV, organ: lung) was determined as 3.33E+06; the IVIS (route IV, organ: spleen) stood at 7.33E+07. In addition, the “% of organ targeting” value runs as follows: (route IV, organ: liver) 31.60%; (route IV, organ: lung) 2.97%; (route IV, organ: spleen) 65.43%.
Regarding `CCCCCCCCC(CCCCCC)C(=O)NCCOC(=O)C(O)CN(CCCN(CC(O)C(=O)OCCNC(=O)C(CCCCCC)CCCCCCCC)CC(O)C(=O)OCCNC(=O)C(CCCCCC)CCCCCCCC)CCCN(CC(O)C(=O)OCCNC(=O)C(CCCCCC)CCCCCCCC)CC(O)C(=O)OCCNC(=O)C(CCCCCC)CCCCCCCC` (stereo not drawn) [Compound L0375], the IVIS (route IM, organ not given) is reported as 1.41E+05 and the IVIS (route IV, organ not given) is given as 3.72E+05.
The corresponding values for `CCCCCCCCCCOC(=O)CCCNC(=O)C(O)CN(CCCN(CC(O)C(=O)NCCCC(=O)OCCCCCCCCCC)CC(O)C(=O)NCCCC(=O)OCCCCCCCCCC)CCCN(CC(O)C(=O)NCCCC(=O)OCCCCCCCCCC)CC(O)C(=O)NCCCC(=O)OCCCCCCCCCC` (stereo not drawn) [Compound L0387] are 1.15E+05 and 5.23E+05.
On to `CCCCCCCCN(C)C(=O)C(O)CN(CCCN(CC(O)C(=O)N(C)CCCCCCCC)CC(O)C(=O)N(C)CCCCCCCC)CCCN(CC(O)C(=O)N(C)CCCCCCCC)CC(O)C(=O)N(C)CCCCCCCC` (stereo not drawn) [Compound L0354], for which the IVIS reads like this: (route IM, organ not given) 6.90E+06; (route IV, organ: body) 1.35E+08; (route IV, organ: liver) 3.14E+07; (route IV, organ: lung) 9.31E+05; (route IV, organ: spleen) 3.86E+07. Besides, the “% of organ targeting” value reads like this: (route IV, organ: liver) 44.24%; (route IV, organ: lung) 1.31%; (route IV, organ: spleen) 54.45%.
With `CCCCCCC(CCCCCC)C(=O)OCCCCCCNC(=O)C(O)CN(CCN(C)CCN(CC(O)C(=O)NCCCCCCOC(=O)C(CCCCCC)CCCCCC)CC(O)C(=O)NCCCCCCOC(=O)C(CCCCCC)CCCCCC)CC(O)C(=O)NCCCCCCOC(=O)C(CCCCCC)CCCCCC` (stereo not drawn) [Compound L0359], the IVIS runs as follows: (route IM, organ not given) 2.25E+07; (route IV, organ: body) 2.65E+08; (route IV, organ: liver) 5.06E+07; (route IV, organ: lung) 9.61E+06; (route IV, organ: spleen) 9.08E+07. Also, the “% of organ targeting” value (route IV, organ: liver) worked out at 33.50%; the “% of organ targeting” value (route IV, organ: lung) is reported as 6.37%; the “% of organ targeting” value (route IV, organ: spleen) is given as 60.13%.
Take `CCCCCCCCCCOC(=O)CCCNC(=O)C(O)CN(CCN(C)CCN(CC(O)C(=O)NCCCC(=O)OCCCCCCCCCC)CC(O)C(=O)NCCCC(=O)OCCCCCCCCCC)CC(O)C(=O)NCCCC(=O)OCCCCCCCCCC` (stereo not drawn) [Compound L0386]: the “organ targeting specificity” value is listed as “more selective towards the lung”. Besides, the IVIS (route IM, organ not given) is 1.91E+05. The IVIS (route IV, organ: body) was 6.49E+07. Further, for the setting “route IV, organ: liver”, the “% of organ targeting” value was 1.32% and the IVIS amounted to 2.54E+06. Further, under “route IV, organ: lung”, the “% of organ targeting” value is 96.51% and the IVIS stood at 1.86E+08. In addition, where the note is “route IV, organ: spleen”, the “% of organ targeting” value was 2.17% and the IVIS was 4.18E+06.
On to `CCCCCCCCC(CCCCCC)C(=O)OCCCCNC(=O)C(O)CN(CCCN(C)CCCN(CC(O)C(=O)NCCCCOC(=O)C(CCCCCC)CCCCCCCC)CC(O)C(=O)NCCCCOC(=O)C(CCCCCC)CCCCCCCC)CC(O)C(=O)NCCCCOC(=O)C(CCCCCC)CCCCCCCC` (stereo not drawn) [Compound L0376], for which the “organ targeting specificity” value is on record as “strong targeting specificity to deliver to spleen”. Where the note is “route IM, organ: liver”, the “% of organ targeting” value is 30.06% and the IVIS is given as 2.21E+05. Moreover, under “route IM, organ: lung”, the “% of organ targeting” value is reported as 5.80% and the IVIS was found to be 4.27E+04. Moreover, where the note is “route IM, organ: muscle”, the IVIS is given as 2.06E+07. Also, where the note is “route IM, organ: spleen”, the “% of organ targeting” value came to 64.14% and the IVIS is 4.72E+05. Moreover, the IVIS (route IV, organ: body) came out at 5.58E+07. Also, where the note is “route IV, organ: liver”, the “% of organ targeting” value is on record as 14.62% and the IVIS is 1.64E+07. For the same compound, under “route IV, organ: lung”, the “% of organ targeting” value is 20.78% and the IVIS turned out to be 2.32E+07. Moreover, under “route IV, organ: spleen”, the “% of organ targeting” value was 64.60% and the IVIS came to 7.23E+07.
Regarding `CCCCCCCCCCCCCCN(C)C(=O)C(O)CN(CCCN(C)CCCN(CC(O)C(=O)N(C)CCCCCCCCCCCCCC)CC(O)C(=O)N(C)CCCCCCCCCCCCCC)CC(O)C(=O)N(C)CCCCCCCCCCCCCC` (stereo not drawn) [Compound L0355], the IVIS reads like this: (route IM, organ not given) 2.41E+06; (route IV, organ: body) 9.52E+06; (route IV, organ: liver) 2.63E+05; (route IV, organ: lung) 1.34E+07; (route IV, organ: spleen) 2.13E+06. Besides, the “% of organ targeting” value (route IV, organ: liver) is 1.66%; the “% of organ targeting” value (route IV, organ: lung) worked out at 84.86%; the “% of organ targeting” value (route IV, organ: spleen) is 13.48%.
Regarding `CCCCCCCCC(CCCCCC)C(=O)OCCCCCCNC(=O)C(O)CN(CCN(C)CCN(CC(O)C(=O)NCCCCCCOC(=O)C(CCCCCC)CCCCCCCC)CC(O)C(=O)NCCCCCCOC(=O)C(CCCCCC)CCCCCCCC)CC(O)C(=O)NCCCCCCOC(=O)C(CCCCCC)CCCCCCCC` (stereo not drawn) [Compound L0371], the IVIS reads like this: (route IM, organ not given) 3.02E+07; (route IV, organ: body) 1.98E+07; (route IV, organ: liver) 2.58E+06; (route IV, organ: lung) 2.62E+06; (route IV, organ: spleen) 2.64E+07. The “% of organ targeting” value runs as follows: (route IV, organ: liver) 8.16%; (route IV, organ: lung) 8.29%; (route IV, organ: spleen) 83.54%.
With `CCCCCCC(CCCCCC)C(=O)OCCCCCCNC(=O)C(O)CN(CCCN(CC(O)C(=O)NCCCCCCOC(=O)C(CCCCCC)CCCCCC)CC(O)C(=O)NCCCCCCOC(=O)C(CCCCCC)CCCCCC)CCCN(CC(O)C(=O)NCCCCCCOC(=O)C(CCCCCC)CCCCCC)CC(O)C(=O)NCCCCCCOC(=O)C(CCCCCC)CCCCCC` (stereo not drawn) [Compound L0360], the IVIS (route IM, organ not given) is 1.44E+07 and the IVIS (route IV, organ not given) stood at 4.50E+08.
